Among the data in PMC9274004, “Deciphering the Molecular Interaction Between the Adhesion G Protein-Coupled Receptor ADGRV1 and its PDZ-Containing Regulator PDZD7” (Frontiers in Molecular Biosciences, 2022) are Kd values, retold here.

This test deals with T1, PDZD7 P1P2 (81-313) (Mus musculus, UniProt E9Q9W7).
T1 construct: PDZ2ext (206-313), P1P2 (81-313); GST (followed by TEV site) (N, cleaved yes); made in house; host or cells: E. coli BL21 DE3
In words: Fluorescence titration of PDZ tandem P1P2. The test is classed as binding, murine. Conditions: fluorescence titration (Trp, ex 295 nm, em 346-349 nm); P1P2 2 µM in Phosphate Buffer pH 6.6 (50 mM); error from quality of fit. On the procedure:
Fluorescence titrations were performed on a Jasco V-730 spectrometer using quartz cell 109.004F-QS (Hellma Analytics) with an optical path of 10 mm and with thick side to reduce the inner filter effect. PDZ1ext and P1P2 were prepared in Phosphate Buffer pH 6.6 (50 mM) at 6 and 2 µM respectively, while PDZ2ext was prepared in Tris HCl pH 7.5 (50 mM) at 5 µM. Variations in the quantum yield of fluorescence of tryptophans from the sample were monitored upon progressive addition of buffered ADGRV1pbm peptide. After peptide addition, the sample is homogenized by in-spectrometer magnet agitation for 30 s. The sample is left to rest for an additional 60 s before measurement. Excitation is set at 295 nm and fluorescence was measured at the maximum emission wavelength (346-349 nm) of the unbound form with a 5 nm bandwidth for both. Titration curves were fitted using the following formula: y = Fp∗p0+(Fx-Fp)∗0.5∗(R∗I0+(1-R)∗x + K-((R∗I0+(1-R)∗x + K)^2-4∗R∗(I0-x)∗x)^1/2), where p0 is the initial protein concentration, I0 the peptide stock concentration, R the p0/I0 ratio, x the volume of added peptide in µl, Fp the fluorescence of PDZ constructs, Fx the fluorescence of the complex, and K the Kd. […]
We monitored the interaction between PDZD7 constructs and a peptide (ADGRV1pbm) corresponding to the last 13 residues of ADGRV1, encompassing its PBM (sequence VELRRIPIADTHL-COOH; PBM underlined). […]

Where no end group is shown, it is not given here.

T1 sequence (E9Q9W7 81-313): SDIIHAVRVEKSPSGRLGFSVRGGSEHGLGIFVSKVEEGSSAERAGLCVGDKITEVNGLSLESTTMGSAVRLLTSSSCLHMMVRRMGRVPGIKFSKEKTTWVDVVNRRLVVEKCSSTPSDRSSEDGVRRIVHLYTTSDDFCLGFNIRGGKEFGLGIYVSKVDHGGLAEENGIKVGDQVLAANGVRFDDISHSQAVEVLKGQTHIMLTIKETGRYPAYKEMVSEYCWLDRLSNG

For VELRRIPIADTHL [ADGRV1pbm], binding was put at a Kd of 1600 ± 300 nM.

Usually Kd stands for the constant that tells how readily two partners part at equilibrium. High values mean weaker binding, low ones tighter binding.
